Data from ChEMBL document CHEMBL5257132, “Discovery of a Novel Series of Potent SHP2 Allosteric Inhibitors” (ACS Med Chem Lett, 2023).
Values after ≈ are worked out from the molar mass of the structure shown.

How the values were obtained:
[1] = molecular target: T1, Tyrosine-protein phosphatase non-receptor type 11 (Homo sapiens, UniProt Q06124); assay: Allosteric inhibition of recombinant human SHP2 using IRS1 peptide and DiFMUP as substrate incubated for 30 mins followed by DiFMUP addition and measured after 30 mins by fluorescence based microplate reader analysis
T1 sequence (Q06124 whole entry): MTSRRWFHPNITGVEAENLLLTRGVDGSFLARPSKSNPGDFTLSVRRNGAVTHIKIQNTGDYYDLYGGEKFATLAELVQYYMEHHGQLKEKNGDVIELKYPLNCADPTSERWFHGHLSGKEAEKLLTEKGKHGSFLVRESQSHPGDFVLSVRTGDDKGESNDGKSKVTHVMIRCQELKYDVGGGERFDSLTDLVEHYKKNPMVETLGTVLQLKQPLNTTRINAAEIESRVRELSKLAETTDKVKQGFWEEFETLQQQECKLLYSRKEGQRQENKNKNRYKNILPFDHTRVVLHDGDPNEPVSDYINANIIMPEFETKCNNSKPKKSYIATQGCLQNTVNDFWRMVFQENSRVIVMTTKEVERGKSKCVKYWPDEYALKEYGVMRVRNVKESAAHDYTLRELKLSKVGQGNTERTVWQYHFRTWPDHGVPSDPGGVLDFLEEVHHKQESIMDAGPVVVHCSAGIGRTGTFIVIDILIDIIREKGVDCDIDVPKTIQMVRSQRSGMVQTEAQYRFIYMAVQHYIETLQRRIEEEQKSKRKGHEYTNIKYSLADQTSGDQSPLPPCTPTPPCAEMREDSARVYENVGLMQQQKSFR

[2] = Inhibition of ERK phosphorylation in human KYSE520 cells incubated for 2 hrs by TR-FRET assay; format: cell-based; conditions: KYSE-520, 2 h
[3] = Apparent permeability of compound in dog MDCK-MDR1 cells by LC-MS/MS analysis; format: ADME, cell-based, Canis lupus familiaris
[4] = Metabolic stability in Sprague-Dawley rat liver microsomes assessed as intrinsic clearance at 1 uM and measured upto 60 mins in presence of NADPH as cofactor by LC-MS/MS analysis; format: ADME, Microsome; conditions: read-out: CLH
[5] = Metabolic stability in human liver microsomes assessed as intrinsic clearance at 1 uM and measured upto 60 mins in presence of NADPH as cofactor by LC-MS/MS analysis; format: ADME, Microsome; conditions: read-out: CLH
[6] = molecular target: Voltage-gated inwardly rectifying potassium channel KCNH2 (Homo sapiens, UniProt Q12809); assay: Inhibition of human ERG by fluorescence polarization assay; format: toxicity
Sequence of Voltage-gated inwardly rectifying potassium channel KCNH2 (Q12809 whole entry): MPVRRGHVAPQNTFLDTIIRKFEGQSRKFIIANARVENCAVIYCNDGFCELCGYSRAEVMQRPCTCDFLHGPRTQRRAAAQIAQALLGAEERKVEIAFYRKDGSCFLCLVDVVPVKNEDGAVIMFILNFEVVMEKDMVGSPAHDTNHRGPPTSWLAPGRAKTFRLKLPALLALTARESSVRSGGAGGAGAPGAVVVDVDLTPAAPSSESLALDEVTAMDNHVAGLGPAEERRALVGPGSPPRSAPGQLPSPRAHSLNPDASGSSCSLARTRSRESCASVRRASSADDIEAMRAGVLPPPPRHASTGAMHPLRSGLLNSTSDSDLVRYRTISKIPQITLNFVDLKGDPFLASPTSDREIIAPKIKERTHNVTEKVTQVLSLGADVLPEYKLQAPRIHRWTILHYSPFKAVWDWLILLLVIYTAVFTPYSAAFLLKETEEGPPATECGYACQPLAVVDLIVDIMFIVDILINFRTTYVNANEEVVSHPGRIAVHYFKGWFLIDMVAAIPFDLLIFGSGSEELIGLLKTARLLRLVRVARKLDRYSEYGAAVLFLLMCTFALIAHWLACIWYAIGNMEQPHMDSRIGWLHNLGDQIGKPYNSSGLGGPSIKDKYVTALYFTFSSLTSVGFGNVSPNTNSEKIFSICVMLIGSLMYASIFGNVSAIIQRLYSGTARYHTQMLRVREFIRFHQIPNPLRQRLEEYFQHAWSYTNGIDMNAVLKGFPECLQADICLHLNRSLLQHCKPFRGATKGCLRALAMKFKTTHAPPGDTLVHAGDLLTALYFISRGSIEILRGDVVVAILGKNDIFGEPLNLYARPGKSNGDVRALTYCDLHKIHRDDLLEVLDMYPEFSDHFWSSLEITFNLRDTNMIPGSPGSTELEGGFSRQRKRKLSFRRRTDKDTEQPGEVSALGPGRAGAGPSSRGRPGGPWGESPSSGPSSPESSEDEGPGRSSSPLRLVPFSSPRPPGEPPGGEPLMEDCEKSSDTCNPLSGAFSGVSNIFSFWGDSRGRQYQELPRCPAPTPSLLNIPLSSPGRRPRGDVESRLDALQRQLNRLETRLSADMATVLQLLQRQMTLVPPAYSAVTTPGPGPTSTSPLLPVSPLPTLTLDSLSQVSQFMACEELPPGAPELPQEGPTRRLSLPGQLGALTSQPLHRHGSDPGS

[7] = Kinetic solubility of compound in FeSSIF by LCMS analysis; format: ADME; conditions: read-out: Kinetic_solubility
[8] = Efflux ratio of apparent permeability […] in dog MDCK-MDR1 cells by LC-MS/MS analysis; format: ADME, cell-based, Canis lupus familiaris
[9] = AUC in Sprague-Dawley rat plasma at 1 mg/kg,po administered as 60:20:20 PEG400/DMSO/H2O formulation and measured upto 24 hrs by LC-MS/MS analysis; format: ADME, organism-based; parameters: time < 24 hrs, dose 1 mg/kg, route po
[10] = Kinetic solubility of compound in FaSSIF by LCMS analysis; format: ADME; conditions: read-out: Kinetic_solubility
[11] = Volume of distribution at steady state in Sprague-Dawley rat plasma at 0.5 mg/kg, iv and measured upto 24 hrs by LC-MS/MS analysis; format: ADME, organism-based; conditions: read-out: Vdss
[12] = AUC in Sprague-Dawley rat plasma at 1 mg/kg,po administered as 50:50 PEG400/Labrasol formulation and measured upto 24 hrs by LC-MS/MS analysis; format: ADME, organism-based; parameters: dose 1 mg/kg, time < 24 hrs, route po
[13] = Kinetic solubility of compound in FaSSGF by LCMS analysis; format: ADME; conditions: read-out: Kinetic_solubility
[14] = Half life in Sprague-Dawley rat plasma at 0.5 mg/kg, iv and measured upto 24 hrs by LC-MS/MS analysis; format: ADME, organism-based
[15] = Cmax in Sprague-Dawley rat plasma at 1 mg/kg, po administered as 60:20:20 PEG400/DMSO/H2O formulation and measured upto 24 hrs by LC-MS/MS analysis; format: ADME, organism-based; parameters: dose 1 mg/kg, time < 24 hrs, route po
[16] = test system: KYSE-520 cell line; assay: Antiproliferative activity against human KYSE520 cells assessed as inhibition of cell proliferation incubated for 96 hrs by CellTiter-Glo reagent based assay; format: functional; conditions: KYSE-520, 96 h
[17] = AUC in Sprague-Dawley rat plasma at 1 mg/kg,po administered as 60:20:20 PEG400/DMSO/H2O formulation and measured upto 24 hrs in presence of Elacridar by LC-MS/MS analysis; format: ADME, organism-based; parameters: time < 24 hrs, dose 1 mg/kg, route po; conditions: with Elacridar (dose not stated)
[18] = Oral bioavailability in Sprague-Dawley rat plasma at 1 mg/kg administered as 60:20:20 PEG400/DMSO/H2O formulation and measured upto 24 hrs by LC-MS/MS analysis; format: ADME, organism-based
[19] = Clearance in Sprague-Dawley rat plasma at 0.5 mg/kg, iv and measured upto 24 hrs by LC-MS/MS analysis; format: ADME, organism-based
[20] = Apparent permeability of compound at pH 7.4 at 5 uM incubated for 4 hrs by PAMPA based LC-MS/MS analysis; format: ADME

Structure (SMILES) | IC50 [1] [nM] | IC50 [2] [nM] | IC50 [6] [nM] | other results
NC[C@]1(c2ccccn2)[C@@H]2CCN(c3cnc(Sc4cccnc4C(F)(F)F)c(N)n3)C[C@@H]21 | 68 | 20 | – | –
Cc1csc([C@@]2(CN)[C@@H]3CCN(c4nc5nc(Sc6cccnc6C(F)(F)F)cnc5[nH]4)C[C@@H]32)n1 | 9 | 210 | – | –
Cc1csc([C@@]2(CN)[C@@H]3CN(c4cnc5c(-c6ccc7nn(C)cc7c6Cl)n[nH]c5n4)C[C@@H]32)n1 | 5 | 24 | > 30000 | Papp [3]: 9.2 ×10⁻⁶ cm/s; microsomal CLint at 1 µM [4]: 25 µL/min/mg; microsomal CLint at 1 µM [5]: 13.5 µL/min/mg; solubility kinetic [7]: 168 µM (≈ 82.7 µg/mL); Ratio [8]: 0.7; AUC at 24 h [9]: 0.01 µM·h; solubility kinetic [10]: 124 µM (≈ 61 µg/mL); Vd [11]: 1 L/kg; AUC at 24 h [12]: 0.05 µM·h; solubility kinetic [13]: 175 µM (≈ 86.1 µg/mL); half-life [14]: 1.9 h; Cmax [15]: 10 nM; IC50 [16]: 166 nM; AUC at 24 h [17]: 0.58 µM·h; bioavailability [18]: 1.2%; clearance [19]: 16.2 mL/min/kg
NC[C@]1(c2ccccc2)[C@@H]2CCN(c3cnc4c(-c5cccc(Cl)c5Cl)n[nH]c4n3)C[C@@H]21 | 9 | 260 | 389 | –
Cc1csc([C@@]2(CN)[C@@H]3CCN(c4cnc5c(-c6cccc(Cl)c6Cl)n[nH]c5n4)C[C@@H]32)n1 (racemic) | 6 | 71 | 250 | –
Cc1nc([C@@]2(CN)[C@@H]3CN(c4cnc5c(-c6ccc7nn(C)cc7c6Cl)n[nH]c5n4)C[C@@H]32)cs1 | 6 | 89 | > 30000 | –
Cn1cc2c(Cl)c(-c3n[nH]c4nc(N5C[C@@H]6[C@H](C5)[C@@]6(CN)c5nc(C(F)(F)F)cs5)cnc34)ccc2n1 | 12 | 21 | > 30000 | IC50 [16]: 231 nM
Cn1cc2c(Cl)c(-c3n[nH]c4nc(N5C[C@@H]6[C@H](C5)[C@@]6(CN)c5nc(Cl)cs5)cnc34)ccc2n1 | 5 | 9 | 12300 | IC50 [16]: 183 nM
Cc1cccc([C@@]2(CN)[C@@H]3CN(c4cnc5c(-c6ccc7nn(C)cc7c6Cl)n[nH]c5n4)C[C@@H]32)n1 | 4 | 90 | 5870 | –
Cc1csc([C@]2(CN)[C@@H]3CCN(c4cnc5c(-c6cccc(Cl)c6Cl)n[nH]c5n4)C[C@@H]32)n1 | 3 | 28 | 58 | Papp at 4 h, 5 µM [20]: 1.75 ×10⁻⁶ cm/s
Cc1nnc([C@@]2(CN)[C@@H]3CN(c4cnc5c(-c6ccc7nn(C)cc7c6Cl)n[nH]c5n4)C[C@@H]32)s1 | 10 | 162 | > 30000 | –
Cc1csc([C@@]2(CN)[C@@H]3CCN(c4cnc(Sc5cccnc5C(F)(F)F)c(N)n4)C[C@@H]32)n1 | 65 | 9 | – | –
Cc1csc([C@@]2(CN)[C@@H]3CN(c4cnc5c(-c6ccc7nc(C)sc7c6Cl)n[nH]c5n4)C[C@@H]32)n1 | 5 | 22 | 1660 | –
Cn1ccc([C@@]2(CN)[C@@H]3CN(c4cnc5c(-c6ccc7nn(C)cc7c6Cl)n[nH]c5n4)C[C@@H]32)n1 | 7 | 153 | > 30000 | –
NC[C@]1(c2ccsc2)[C@@H]2CCN(c3cnc4c(-c5cccc(Cl)c5Cl)n[nH]c4n3)C[C@@H]21 | 8 | 100 | 109 | –
Cn1cc2c(Cl)c(-c3n[nH]c4nc(N5C[C@@H]6[C@H](C5)[C@@]6(CN)c5ccccc5)cnc34)ccc2n1 | 9 | 70 | 5350 | –
Cc1csc([C@@]2(CN)[C@@H]3CCN(c4cnc5c(-c6ccc7nc(C)sc7c6Cl)n[nH]c5n4)C[C@@H]32)n1 | 2 | 4 | 24 | Papp at 4 h, 5 µM [20]: 4.36 ×10⁻⁶ cm/s
Cn1cc2c(Cl)c(-c3n[nH]c4nc(N5C[C@@H]6[C@H](C5)[C@@]6(CN)c5cnsn5)cnc34)ccc2n1 | 4 | 30 | > 30000 | –
N[C@]1(c2ccccc2)[C@@H]2CCN(c3nc4nc(Sc5cccnc5C(F)(F)F)cnc4[nH]3)C[C@@H]21 | 1410 | – | – | –

Structure (SMILES) | IC50 [1] [nM] | IC50 [2] [nM] | IC50 [6] [nM] | other results
NC[C@]1(c2ccccn2)[C@@H]2CCN(c3nc4nc(Sc5cccnc5C(F)(F)F)cnc4[nH]3)C[C@@H]21 | 17 | 477 | – | –
N[C@]1(c2ccccc2)[C@@H]2CCN(c3cnc4c(-c5cccc(Cl)c5Cl)n[nH]c4n3)C[C@@H]21 | 1460 | – | – | –
Cn1cc2c(Cl)c(-c3n[nH]c4nc(N5C[C@@H]6[C@H](C5)[C@@]6(CN)c5nccs5)cnc34)ccc2n1 | 4 | 60 | 13500 | –
N[C@]1(c2ccccc2)[C@@H]2CN(c3nc4nc(Sc5cccnc5C(F)(F)F)cnc4[nH]3)C[C@@H]21 | > 8000 | – | – | –
NC[C@]1(c2ccccc2)[C@@H]2CN(c3nc4nc(Sc5cccnc5C(F)(F)F)cnc4[nH]3)C[C@@H]21 | > 8000 | – | – | –
Cn1cc2c(Cl)c(-c3n[nH]c4nc(N5C[C@@H]6[C@H](C5)[C@@]6(CN)c5ccccn5)cnc34)ccc2n1 | 5 | 40 | 8960 | –
Cc1csc([C@]2(CN)[C@@H]3CN(c4cnc5c(-c6cccc(Cl)c6Cl)n[nH]c5n4)CC[C@@H]32)n1 | 370 | – | 769 | –
NC[C@]1(c2ccccn2)[C@@H]2CCN(c3cnc4c(-c5cccc(Cl)c5Cl)n[nH]c4n3)C[C@@H]21 | 5 | 42 | 42 | –
Cc1csc([C@@]2(CN)[C@@H]3CCN(c4cnc5c(-c6cccnc6C(F)(F)F)n[nH]c5n4)C[C@@H]32)n1 | 55 | > 666 | 5060 | –
NC[C@]1(c2ccccc2)[C@@H]2CCN(c3cnc(Sc4cccnc4C(F)(F)F)c(N)n3)C[C@@H]21 | 360 | – | – | –
Cc1ccn([C@@]2(CN)[C@@H]3CN(c4cnc5c(-c6ccc7nn(C)cc7c6Cl)n[nH]c5n4)C[C@@H]32)n1 | 49 | 444 | > 30000 | –
NC[C@]1(c2ccsc2)[C@@H]2CCN(c3cnc4c(-c5cccnc5C(F)(F)F)n[nH]c4n3)C[C@@H]21 | 34 | > 666 | 5560 | –
Cc1csc([C@@]2(CN)[C@@H]3CCN(c4cnc5c(-c6ccc7nn(C)cc7c6Cl)n[nH]c5n4)C[C@@H]32)n1 | 6 | 14 | 107 | –
Cc1nc(N2CCC3(CC2)CO[C@@H](C)[C@H]3N)c(CO)nc1-c1cccc(Cl)c1Cl | – | 22 | 3350 | IC50 [16]: 4550 nM
Cc1csc([C@@]2(CN)[C@@H]3CCN(c4cnc5c(-c6ccn7nccc7c6Cl)n[nH]c5n4)C[C@@H]32)n1 | 3 | 22 | 12 | –
Cc1csc([C@@]2(CN)[C@@H]3CN(c4cnc5c(-c6ccn7nccc7c6Cl)n[nH]c5n4)C[C@@H]32)n1 | 4 | 65 | 235 | –
NC[C@]1(c2ccsc2)[C@@H]2CCN(c3nc4nc(Sc5cccnc5C(F)(F)F)cnc4[nH]3)C[C@@H]21 | 54 | > 1330 | – | –
NC[C@]1(c2ccccc2)[C@@H]2CCN(c3nc4nc(Sc5cccnc5C(F)(F)F)cnc4[nH]3)C[C@@H]21 | 94 | > 1330 | – | –
